Assay results: paper PMC4354951 (European journal of medicinal chemistry, 2008)
“Also recorded” adds a separate entry of the source.

Key:
human NTPDase8 = target: T1, human NTPDase8 (Homo sapiens, UniProt Q5MY95); test: Hydrolysis by NTPDase8; assay type: biochemical; settings: 100 μM substrate; relative to ATP hydrolysis (100%)
T1 sequence (Q5MY95 1-495): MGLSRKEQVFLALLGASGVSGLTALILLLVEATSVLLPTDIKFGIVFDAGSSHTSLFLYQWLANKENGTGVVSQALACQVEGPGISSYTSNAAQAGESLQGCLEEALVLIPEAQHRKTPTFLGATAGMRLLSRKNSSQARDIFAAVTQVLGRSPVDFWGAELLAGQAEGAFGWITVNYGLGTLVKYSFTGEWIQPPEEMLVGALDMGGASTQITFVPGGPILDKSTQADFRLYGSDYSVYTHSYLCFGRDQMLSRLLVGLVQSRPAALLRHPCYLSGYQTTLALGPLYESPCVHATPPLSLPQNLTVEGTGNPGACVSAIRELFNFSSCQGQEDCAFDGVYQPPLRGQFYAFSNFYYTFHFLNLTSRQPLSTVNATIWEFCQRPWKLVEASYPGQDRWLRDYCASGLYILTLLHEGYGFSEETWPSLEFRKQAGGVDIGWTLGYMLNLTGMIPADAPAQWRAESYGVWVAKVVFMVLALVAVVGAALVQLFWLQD

human P2Y2 receptor = human P2Y2 receptor (Homo sapiens, UniProt P41231); test: Increase in [Ca2+]i in 1321N1 astrocytoma cells expressing P2Y2 receptor; assay type: cell-based; settings: 1321N1 cell transfectants; for EC50: read-out: EC50 of analogue-induced increase in [Ca2+]i, P2Y2
human P2Y4 receptor = human P2Y4 receptor (Homo sapiens, UniProt P51582); test: Increase in [Ca2+]i in 1321N1 astrocytoma cells expressing P2Y4 receptor; assay type: cell-based; settings: 1321N1 cell transfectants; for EC50: read-out: EC50 of analogue-induced increase in [Ca2+]i, P2Y4
turkey P2Y1 receptor = turkey P2Y1 receptor (Meleagris gallopavo, UniProt P49652); assay type: cell-based; settings: 1321N1 cell transfectants; for EC50: read-out: EC50 of analogue-induced increase in [Ca2+]i, P2Y1
rat P2Y6 receptor = rat P2Y6 receptor (Rattus norvegicus, UniProt Q63371); test: Increase in [Ca2+]i in 1321N1 astrocytoma cells expressing P2Y6 receptor; assay type: cell-based; settings: 1321N1 cell transfectants; for EC50: read-out: EC50 of analogue-induced increase in [Ca2+]i, P2Y6
human NPP1 = target: T2, human NPP1 (Homo sapiens, UniProt P22413); test: Hydrolysis by NPP1; assay type: biochemical; settings: 100 μM substrate; relative to pnp-TMP hydrolysis (100%)
T2 sequence (P22413 1-925): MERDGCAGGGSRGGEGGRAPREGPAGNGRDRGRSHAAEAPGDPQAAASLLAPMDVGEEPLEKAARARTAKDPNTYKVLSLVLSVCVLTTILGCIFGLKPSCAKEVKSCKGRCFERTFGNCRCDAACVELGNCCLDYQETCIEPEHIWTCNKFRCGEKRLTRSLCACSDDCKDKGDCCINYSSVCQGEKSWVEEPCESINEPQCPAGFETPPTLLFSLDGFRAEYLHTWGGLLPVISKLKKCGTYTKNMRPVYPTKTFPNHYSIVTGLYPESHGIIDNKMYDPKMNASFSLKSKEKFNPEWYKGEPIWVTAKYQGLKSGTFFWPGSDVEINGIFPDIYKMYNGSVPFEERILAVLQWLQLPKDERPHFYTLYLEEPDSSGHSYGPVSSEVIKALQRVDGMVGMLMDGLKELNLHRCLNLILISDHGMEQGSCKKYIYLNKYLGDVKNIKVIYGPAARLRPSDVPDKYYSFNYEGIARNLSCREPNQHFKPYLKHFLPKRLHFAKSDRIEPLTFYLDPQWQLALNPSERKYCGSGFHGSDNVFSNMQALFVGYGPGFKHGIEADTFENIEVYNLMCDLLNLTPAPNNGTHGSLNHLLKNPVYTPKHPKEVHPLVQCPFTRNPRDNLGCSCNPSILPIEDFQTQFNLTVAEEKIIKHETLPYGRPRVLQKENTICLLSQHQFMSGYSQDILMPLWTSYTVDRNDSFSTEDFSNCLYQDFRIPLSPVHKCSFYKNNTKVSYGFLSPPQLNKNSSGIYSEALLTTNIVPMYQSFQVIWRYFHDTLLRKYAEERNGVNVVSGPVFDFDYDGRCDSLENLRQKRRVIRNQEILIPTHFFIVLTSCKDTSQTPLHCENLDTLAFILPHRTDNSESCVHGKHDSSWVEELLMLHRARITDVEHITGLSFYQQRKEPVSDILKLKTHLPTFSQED

human NTPDase2 = target: T3, human NTPDase2 (Homo sapiens, UniProt Q9Y5L3); test: Hydrolysis by NTPDase2; assay type: biochemical; settings: 100 μM substrate; relative to ATP hydrolysis (100%)
T3 sequence (Q9Y5L3 1-495): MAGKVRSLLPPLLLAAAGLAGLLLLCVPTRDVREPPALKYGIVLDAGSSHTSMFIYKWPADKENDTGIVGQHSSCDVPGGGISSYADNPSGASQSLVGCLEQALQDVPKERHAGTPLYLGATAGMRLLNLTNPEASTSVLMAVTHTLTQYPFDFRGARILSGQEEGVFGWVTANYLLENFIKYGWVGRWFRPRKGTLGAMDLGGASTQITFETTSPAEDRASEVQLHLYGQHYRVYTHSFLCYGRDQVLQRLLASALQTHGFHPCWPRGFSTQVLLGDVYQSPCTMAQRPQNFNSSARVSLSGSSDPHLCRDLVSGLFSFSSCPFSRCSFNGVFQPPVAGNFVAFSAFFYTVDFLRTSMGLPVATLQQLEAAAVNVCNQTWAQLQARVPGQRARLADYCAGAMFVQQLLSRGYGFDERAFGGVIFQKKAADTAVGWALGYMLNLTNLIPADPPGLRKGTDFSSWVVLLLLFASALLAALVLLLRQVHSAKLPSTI

Sequence of turkey P2Y1 receptor (P49652 whole entry): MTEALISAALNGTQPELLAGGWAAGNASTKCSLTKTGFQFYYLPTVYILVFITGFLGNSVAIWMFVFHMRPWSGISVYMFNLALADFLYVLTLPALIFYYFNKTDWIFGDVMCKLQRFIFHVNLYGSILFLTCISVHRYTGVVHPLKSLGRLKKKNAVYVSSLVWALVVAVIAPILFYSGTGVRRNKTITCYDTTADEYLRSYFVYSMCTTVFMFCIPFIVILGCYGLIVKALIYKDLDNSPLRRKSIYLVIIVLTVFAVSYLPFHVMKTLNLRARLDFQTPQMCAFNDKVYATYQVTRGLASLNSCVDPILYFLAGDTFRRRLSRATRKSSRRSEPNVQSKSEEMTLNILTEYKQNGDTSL
Sequence of human P2Y4 receptor (P51582 whole entry): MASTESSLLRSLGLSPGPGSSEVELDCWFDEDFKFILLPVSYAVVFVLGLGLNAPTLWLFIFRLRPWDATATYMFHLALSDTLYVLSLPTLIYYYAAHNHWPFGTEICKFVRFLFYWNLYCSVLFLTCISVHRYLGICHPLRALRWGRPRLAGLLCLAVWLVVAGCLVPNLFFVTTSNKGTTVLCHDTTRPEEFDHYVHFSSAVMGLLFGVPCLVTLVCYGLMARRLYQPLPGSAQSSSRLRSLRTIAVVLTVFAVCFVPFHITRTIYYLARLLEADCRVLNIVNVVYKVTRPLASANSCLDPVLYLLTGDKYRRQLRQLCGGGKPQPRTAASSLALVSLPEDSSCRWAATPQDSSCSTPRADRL
Sequence of rat P2Y6 receptor (Q63371 whole entry): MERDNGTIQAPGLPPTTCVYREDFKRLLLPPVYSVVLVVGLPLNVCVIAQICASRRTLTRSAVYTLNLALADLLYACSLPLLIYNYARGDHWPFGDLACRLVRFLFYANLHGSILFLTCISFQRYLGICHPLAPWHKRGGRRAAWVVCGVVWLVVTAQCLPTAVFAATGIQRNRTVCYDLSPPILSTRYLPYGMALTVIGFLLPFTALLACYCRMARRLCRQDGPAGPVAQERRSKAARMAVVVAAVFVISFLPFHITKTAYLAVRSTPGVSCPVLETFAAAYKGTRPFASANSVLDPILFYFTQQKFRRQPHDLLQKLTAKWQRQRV
Sequence of human P2Y2 receptor (P41231 whole entry): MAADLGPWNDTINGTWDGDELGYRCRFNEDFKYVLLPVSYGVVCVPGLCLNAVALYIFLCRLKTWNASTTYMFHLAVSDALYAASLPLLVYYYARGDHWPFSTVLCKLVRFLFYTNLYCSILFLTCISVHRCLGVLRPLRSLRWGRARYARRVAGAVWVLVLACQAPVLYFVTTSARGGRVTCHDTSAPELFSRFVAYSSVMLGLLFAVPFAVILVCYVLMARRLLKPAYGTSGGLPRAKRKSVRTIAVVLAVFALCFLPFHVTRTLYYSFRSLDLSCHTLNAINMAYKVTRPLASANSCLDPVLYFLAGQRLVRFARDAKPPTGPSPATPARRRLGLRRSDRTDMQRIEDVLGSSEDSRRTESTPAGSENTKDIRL

Structure (SMILES) | Relative activity of NTPDase8 (human NTPDase8) | agonist activity at P2Y2R (human P2Y2 receptor) | EC50 (human P2Y2 receptor) | agonist activity at P2Y4R (human P2Y4 receptor) | EC50 (human P2Y4 receptor) | agonist activity at P2Y1R (turkey P2Y1 receptor) | EC50 (turkey P2Y1 receptor) | agonist activity at P2Y6R (rat P2Y6 receptor) | EC50 (rat P2Y6 receptor) | Relative activity of NPP1 (human NPP1) | Relative activity of NTPDase2 (human NTPDase2)
[BH3-][P+](O)(OC[C@H]1O[C@@H](n2cnc3c(N)ncnc32)[C@H](O)[C@@H]1O)OP(=O)(O)CP(=O)(O)O (single isomer, unassigned) [3A, Adenosine-5′-O-(α-boranotriphosphate)-β,γ-CH2] | 2.0 ± 0.03% | insignificant activities | > 100 µM | insignificant activities | > 100 µM | insignificant activities; also recorded: practically inactive | > 100 µM | insignificant activities | > 100 µM | 0% | 1.0 ± 0.2%
[BH3-][P+](O)(OC[C@H]1O[C@@H](n2cnc3c(N)nc(SC)nc32)[C@H](O)[C@@H]1O)OP(=O)(O)CP(=O)(O)O (single isomer, unassigned) [4A, 2-MeS–adenosine-5′-O-(α-boranotriphosphate)-β,γ-CH2] | 4.0 ± 0.02% | insignificant activities; also recorded: inactivity | > 100 µM | insignificant activities | > 100 µM | insignificant activities; also recorded: practically inactive; also recorded: no activity | > 100 µM | insignificant activities | > 100 µM | 0% | 1.0 ± 0.1%
[BH3-][P+](O)(OC[C@H]1O[C@@H](n2cnc3c(N)ncnc32)[C@H](O)[C@@H]1O)OP(=O)(O)CP(=O)(O)O (single isomer, unassigned) [3B, Adenosine-5′-O-(α-boranotriphosphate)-β,γ-CH2] | <1% | insignificant activities | > 100 µM | insignificant activities | > 100 µM | insignificant activities | > 100 µM | insignificant activities | > 100 µM | 4.0 ± 0.12% | 0%
